Literature values in US7326683B2, “Treatment of membrane-associated diseases and disorders using lantibiotic containing compositions” (Molichem Medicines, Inc., priority 2004, dated 2008).

Tests used:
[1] = aspirin used after the sentinel event, atherosclerotic heart disease (ASHD)
[2] = system: clatharin-coated vesicle; details: clatharin-coated vesicle acidification; Stone et al., J. Biol. Chem. 259: 2701-2703 (1984)

Compound	decrease of risk of MI [1]	inhibition of the proton translocation facilitated by chloride translocation [2]
CC(=O)Oc1ccccc1C(=O)O [aspirin]	approximately 50%	–
duramycin	–	up to 50%
